Laboratory results as given in patent US20170312333A1, “Composition for Treating Cancer Stem Cells” (Industry-Academic Corporation Foundation, Yonsei University, priority 2014, published 2017).

Columns and labels:
s-MDA-MB-231 = test: Tumor volume in breast cancer animal model injected with cancer stem cells (S231); format: in vivo, BALB/c nude mice; details: for tumor volume: in mm³ (unit assumed)
Experimental: (§1) In order to identify a therapeutic method effective against cancer stem cells, breast cancer animal models were constructed. For construction of the breast cancer animal models, each of breast cancer cells (p-MDA-MB-231 and p-MCF-7) and breast cancer stem cell lines (s-MDA-MB-231 and s-MCF-7) was cultured in vitro, and the cultured cells were injected into the upper left flank of 5-6-week-old BALB/c nude mice at a density of 1.0×10^7 cells/mouse. Then, the mice were housed at 22° C. under a 12-hr light/12-hr dark cycle for 7 days while they were fed with water and feed, thereby constructing breast cancer animal models.

p-MDA-MB-231 = test: Tumor volume in breast cancer animal model injected with ordinary cancer cells (P231); format: in vivo, BALB/c nude mice
Experimental: as §1

cancer stem cells [1] = test: TUNEL assay (apoptosis, DNA fragmentation) in cancer stem cells under nutrient deprivation; format: cell-based; details: 10 μM
Experimental: In order to examine whether the reason why cancer stem cells show high viability under nutrient deprivation is because of their resistance to apoptosis, each of p-MDA-MB-231, p-MCF-7, s-MDA-MB-231 and s-MCF-7 cell lines, cultured under glucose deprivation for 40 hours in the same manner as described in Example 2, was collected and subjected to a TUNEL assay. In the TUNEL assay, the collected cells were fixed with 4% paraformaldehyde solution for 48 hours, and then stained using a Terminal Deoxynucleotidyl Transferase dUTP Nick end Labeling (TUNEL) kit according to the manufacturer's protocol, and the fluorescence images of the cells were acquired with a fluorescence microscope and analyzed using Zeiss LSM Image Browser software program. […]
(§2) In order to examine an effect which occurs when CaMK-2α signaling is inhibited, the cancer stem cells were treated with 10 μM of KN62 (1-[N,O-bis(5-isoquinolinesulfonyl)-N-methyl-L-tyrosyl]-4-phenylpiperazine) well known as an inhibitor of CaMK-2α, and then a TUNEL assay was performed in the same manner as described in Example 3.1 to examine apoptosis and DNA fragmentation. In addition, Western blotting was performed in the same manner as described in Example 3.2 to examine the expression of genes, and the viability of the cells was measured in the same manner as described in Example 2.

cancer stem cells [2] = test: Immunoblot analysis (Western blotting) of cancer stem cells under nutrient deprivation; format: cell-based; details: 10 μM
Experimental: In order to examine whether apoptosis-related proteins are involved in apoptotic resistance which is the reason why the cancer stem cells show high viability under nutrient deprivation, each of p-MDA-MB-231, p-MCF-7, s-MDA-MB-231 and s-MCF-7 cell lines, cultured under glucose deprivation for 40 hours in the same manner as described in Example 2, was collected and subjected to immunoblot analysis. The collected cells were washed twice with chilled PBS (phosphate buffered saline) buffer, and lysed with RIPA buffer to isolate protein. For the next experiment, the amount of the isolated protein was measured by a BCA assay. 20 μg of the protein obtained from each of the cell lines was electrophoresed on 8-10% SDS-polyacrylamide gel and transferred to a PVDF membrane using electricity. The protein-transferred PVDP membranes were treated with 5% skim milk at room temperature for 1 hour, and then incubated with a primary antibody against each of caspase-3, caspase-7, Bcl-2 and beta-actin (control) at 4° C. for 16 hours. The PVDP membranes incubated with the antibodies were washed three times with TBST buffer to remove unbound primary antibodies, and were further incubated with HPR-conjugated secondary antibodies at room temperature for 1 hour. After completion of the incubation, the membranes were washed with TBST buffer to completely remove the secondary antibodies, and were treated with ECL buffer and incubated for 3 minutes, followed by exposure to Kodak X-OMAT AR Film. […]
as §2

cancer stem cells [3] = test: Extracellular Ca2+ concentration of cancer stem cells after PMCA or SERCA inhibition; format: cell-based; details: nutrient deprivation
Description: In order to examine whether the calcium concentration regulatory ability of the cancer stem cells is changed when PMCA is inhibited under nutrient deprivation, the activity of PMCA and SERCA was inhibited by using caloxin (which is a calcium pump inhibitor) as an inhibitor of PMCA acting as Ca^2+-ATPase (calcium ATPase) in the plasma membrane and using thapsigargin which is an inhibitor of SERCA (sarco/endoplasmic reticulum Ca^2+-ATPase) acting as Ca^2+-ATPase (calcium ATPase), and then changes in the extracellular Ca^2+ concentrations of the cancer stem cells were measured.

cancer stem cells [4] = test: Viability of cancer stem cells under nutrient deprivation after PMCA or SERCA inhibition; format: cell-based
Experimental: In order to compare the viabilities of cancer cells and cancer stem cells under glucose deprivation, each of p-MDA-MB-231, p-MCF-7, s-MDA-MB-231 and s-MCF-7 cell lines, prepared in the same manner as described in Example 1, was added to a 96-well plate at a concentration of 5×10^3 cells/100 μL and cultured to a confluence of about 70%, and then the medium was replaced with a glucose-deprived in RPMI-1640 medium containing 10% FBS, and the cells were further cultured for 3 days. At each of 0, 12, 24, 36, 48, 60 and 72 hours, the viability of each of the cell lines was determined by crystal violet staining and an MTT (3-(4,5-dimethylthiazol-2-yl)-2,5-diphenyltetrazolium bromide) assay. In order to examine whether the calcium concentration regulatory ability of the cancer stem cells is changed when PMCA is inhibited under nutrient deprivation, the activity of PMCA and SERCA was inhibited by using caloxin (which is a calcium pump inhibitor) as an inhibitor of PMCA acting as Ca^2+-ATPase (calcium ATPase) in the plasma membrane and using thapsigargin which is an inhibitor of SERCA (sarco/endoplasmic reticulum Ca^2+-ATPase) acting as Ca^2+-ATPase (calcium ATPase), and then changes in the extracellular Ca^2+ concentrations of the cancer stem cells were measured.

Compound: O=CC[C@@H](O)[C@H](O)[C@H](O)CO [2DG, 2-deoxyglucose]
- tumor volume (s-MDA-MB-231; S231, day 7, i.p. once a day, 2DG 500 mg/kg, metformin 250 mg/kg, caloxin 2al 200 mg/kg): 228.5 ± 23
- tumor volume (s-MDA-MB-231; S231, day 10, same dosing): 277.6 ± 21
- tumor volume (s-MDA-MB-231; S231, day 13, same dosing): 474.4 ± 31
- tumor volume (s-MDA-MB-231; S231, day 16, same dosing): 539.2 ± 33
- tumor volume (s-MDA-MB-231; S231, day 19, same dosing): 638.2 ± 49
- tumor volume (s-MDA-MB-231; S231, day 22, same dosing): 777.0 ± 35
- tumor volume (s-MDA-MB-231; S231, day 25, same dosing): 911.6 ± 35
- tumor volume (s-MDA-MB-231; S231, day 28, same dosing): 1077.4 ± 68
- tumor volume (s-MDA-MB-231; S231, day 31, same dosing): 1290.6 ± 72
- tumor volume (s-MDA-MB-231; S231, day 34, same dosing): 1722.1 ± 69
- tumor volume (s-MDA-MB-231; S231, day 37, same dosing): 2471.7 ± 81
- tumor volume (s-MDA-MB-231; S231, day 40, same dosing): 3173.2 ± 105
- tumor volume (s-MDA-MB-231; S231, day 43, same dosing): 4065.2 ± 119
- tumor volume compared to control group (in words) (s-MDA-MB-231; cancer stem cell model): slightly decreased
- tumor volume (p-MDA-MB-231; P231, day 7, i.p. once a day, 2DG 500 mg/kg, metformin 250 mg/kg, caloxin 2al 200 mg/kg, in mm³ (unit assumed)): 219.1 ± 35
- tumor volume (p-MDA-MB-231; P231, day 10, same dosing): 302 ± 49
- tumor volume (p-MDA-MB-231; P231, day 13, same dosing, in mm³ (unit assumed)): 337.6 ± 47
- tumor volume (p-MDA-MB-231; P231, day 16, same dosing, in mm³ (unit assumed)): 388.6 ± 47
- tumor volume (p-MDA-MB-231; P231, day 19, same dosing, in mm³ (unit assumed)): 440.7 ± 45
- tumor volume (p-MDA-MB-231; P231, day 22, same dosing, in mm³ (unit assumed)): 513.4 ± 46
- tumor volume (p-MDA-MB-231; P231, day 25, same dosing, in mm³ (unit assumed)): 621.4 ± 50
- tumor volume (p-MDA-MB-231; P231, day 28, same dosing, in mm³ (unit assumed)): 834.4 ± 48
- tumor volume (p-MDA-MB-231; P231, day 31, same dosing, in mm³ (unit assumed)): 1142.7 ± 50
- tumor volume (p-MDA-MB-231; P231, day 34, same dosing, in mm³ (unit assumed)): 1547.4 ± 57
- tumor volume (p-MDA-MB-231; P231, day 37, same dosing, in mm³ (unit assumed)): 1944.2 ± 64
- tumor volume (p-MDA-MB-231; P231, day 40, same dosing, in mm³ (unit assumed)): 2359.0 ± 48
- tumor volume (p-MDA-MB-231; P231, day 43, same dosing, in mm³ (unit assumed)): 2866.1 ± 45

Compound: CN([C@@H](Cc1ccc(OS(=O)(=O)c2cccc3cnccc23)cc1)C(=O)N1CCN(c2ccccc2)CC1)S(=O)(=O)c1cccc2cnccc12 [KN62, 1-[N,O-bis(5-isoquinolinesulfonyl)-N-methyl-L-tyrosyl]-4-phenylpiperazine]
- apoptosis (TUNEL assay) (cancer stem cells [1]): inducing apoptosis
- expression of IP3R (cancer stem cells [2]): inhibited
- expression of SERCA2 (cancer stem cells [2]): increased
- phosphorylation of NF-kB (cancer stem cells [2]): did not occur

Compound: C/C=C(/C)C(=O)O[C@H]1C(C)=C2[C@H]([C@@H]1OC(=O)CCCCCCC)[C@@](C)(OC(C)=O)C[C@H](OC(=O)CCC)[C@@]1(O)[C@H]2OC(=O)[C@@]1(C)O [thapsigargin]
- extracellular calcium concentration of the cancer stem cells (cancer stem cells [3]): maintained at a high level
- viability of the cells (cancer stem cells [4]): also high
